Results published in ChEMBL document CHEMBL1129010, “The preparation and evaluation of (+/-)-trans-1-Diazo-8-methoxy-4a-methyl-1,2,3,4,4a,9,10,10a-octahydro-phenanthren-2-one as an inhibitor of human type-1 steroid 5-reductase” (Bioorg Med Chem Lett, 1996).
Values belong to the compound of their own block, whether it stands above or below them.

Assays:
[1] = molecular target: T1, 3-oxo-5-alpha-steroid 4-dehydrogenase 2 (Homo sapiens, UniProt P31213); assay: Apparent inhibitory activity against human Steroid 5-alpha-reductase type 2 expressed in CHO cells; format: cell-based; conditions: read-out: Ki app
T1 sequence (P31213 whole entry): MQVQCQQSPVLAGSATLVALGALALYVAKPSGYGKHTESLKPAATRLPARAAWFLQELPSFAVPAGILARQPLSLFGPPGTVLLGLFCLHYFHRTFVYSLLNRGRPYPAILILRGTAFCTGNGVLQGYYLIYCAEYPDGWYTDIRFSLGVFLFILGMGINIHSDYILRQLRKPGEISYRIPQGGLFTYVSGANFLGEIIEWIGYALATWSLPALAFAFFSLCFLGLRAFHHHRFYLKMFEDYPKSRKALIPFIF

[2] = molecular target: T2, 3-oxo-5-alpha-steroid 4-dehydrogenase 1 (Homo sapiens, UniProt P18405); assay: Apparent inhibitory activity against human Steroid 5-alpha-reductase type I expressed in CHO cells; format: cell-based; conditions: read-out: Ki app
T2 sequence (P18405 whole entry): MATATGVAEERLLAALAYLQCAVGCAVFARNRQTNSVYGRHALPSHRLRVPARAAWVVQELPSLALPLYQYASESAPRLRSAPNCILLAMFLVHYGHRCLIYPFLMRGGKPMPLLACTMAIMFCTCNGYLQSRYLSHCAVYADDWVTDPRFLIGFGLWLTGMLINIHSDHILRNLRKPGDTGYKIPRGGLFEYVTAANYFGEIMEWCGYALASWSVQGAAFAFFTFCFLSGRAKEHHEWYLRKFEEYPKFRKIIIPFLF

[3] = molecular target: T2, 3-oxo-5-alpha-steroid 4-dehydrogenase 1; assay: Apparent inhibitory activity against human Steroid 5-alpha-reductase type I expressed in CHO cells; Active; format: cell-based
[4] = molecular target: T3, 3-oxo-5-alpha-steroid 4-dehydrogenase 1 (Rattus norvegicus, UniProt P24008); assay: Apparent inhibitory activity against rat prostatic Steroid 5-alpha-reductase type I
T3 sequence (P24008 whole entry): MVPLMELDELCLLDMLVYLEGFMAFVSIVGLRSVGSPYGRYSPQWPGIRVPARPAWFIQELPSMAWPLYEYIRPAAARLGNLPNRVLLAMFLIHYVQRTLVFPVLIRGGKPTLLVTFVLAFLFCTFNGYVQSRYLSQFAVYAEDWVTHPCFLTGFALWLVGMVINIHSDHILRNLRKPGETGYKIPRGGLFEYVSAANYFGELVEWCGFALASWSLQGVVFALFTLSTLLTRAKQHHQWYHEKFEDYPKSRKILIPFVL

[5] = molecular target: T2, 3-oxo-5-alpha-steroid 4-dehydrogenase 1; assay: Selective apparent inhibitory activity against human Steroid 5-alpha-reductase type I expressed in CHO cells; Active; format: cell-based

Compound: CC(CO)[C@H]1CC[C@H]2[C@@H]3CC[C@H]4C(=[N+]=[N-])C(=O)CC[C@]4(C)[C@H]3CC[C@]12C (stereo partly specified)
- Ki [4]: 35 nM

Compound: C[C@]12CCC(C(=O)O)=CC1=CCc1cc(Cl)ccc12 (racemic)
- Ki [5]: Active

More lines, now with the values ahead:

- Ki [1]: 2000 nM
- Ki [2]: 120 nM
Compound: COc1cccc2c1CC[C@H]1[C-]([N+]#N)C(=O)CC[C@]21C

- Ki [3]: Active
Compound: CN1C(=O)CC[C@]2(C)c3ccc(Cl)cc3CC[C@@H]12

- Ki [3]: Active
Compound: CN1C(=O)CC[C@@H]2c3ccc(Cl)cc3CC[C@H]21 [BEXLOSTERIDE]
